Assay results taken from article PMC2806534 (Planta, 2009).

Target: T1, AtSUT4 (Arabidopsis thaliana, UniProt Q9FE59)
T1 sequence (Q9FE59 1-510): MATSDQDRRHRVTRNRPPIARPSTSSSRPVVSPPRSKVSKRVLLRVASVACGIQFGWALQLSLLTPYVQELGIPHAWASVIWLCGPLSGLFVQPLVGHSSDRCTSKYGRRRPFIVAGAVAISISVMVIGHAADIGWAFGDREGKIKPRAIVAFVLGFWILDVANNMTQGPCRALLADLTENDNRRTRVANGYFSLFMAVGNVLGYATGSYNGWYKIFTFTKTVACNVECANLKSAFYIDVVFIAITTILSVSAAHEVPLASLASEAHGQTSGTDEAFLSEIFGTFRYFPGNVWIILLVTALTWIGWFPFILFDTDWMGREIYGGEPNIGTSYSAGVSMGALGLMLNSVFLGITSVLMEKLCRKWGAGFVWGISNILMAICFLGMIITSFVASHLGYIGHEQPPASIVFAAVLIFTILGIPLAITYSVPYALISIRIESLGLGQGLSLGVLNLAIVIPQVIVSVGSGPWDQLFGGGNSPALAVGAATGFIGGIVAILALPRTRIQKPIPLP
Test: inhibition of ^[…]-sucrose uptake in yeast expressing AtSUT4
Format: cell-based
Details: 3 mM ^14C-sucrose; competing non-labeled sugar at 9 mM

| SMILES | % inhibition at 9 mM |
| --- | --- |
| OC[C@H]1O[C@@H](O[C@H]2[C@H](O)[C@@H](O)C(O)O[C@@H]2CO)[C@H](O)[C@@H](O)[C@H]1O (some centres unmarked) [lactose] | uptake of sucrose by AtSUT4 was inhibited by rutinose, maltose and lactose |
| OC[C@H]1O[C@H](O[C@H]2[C@H](O)[C@@H](O)C(O)O[C@@H]2CO)[C@H](O)[C@@H](O)[C@@H]1O (some centres unmarked) [maltose] | uptake of sucrose by AtSUT4 was inhibited by rutinose, maltose and lactose |
